Assay [1] concerns CFA-induced inflammatory pain. The assay is described as follows: CFA model of chronic inflammatory pain, hindpaw weight bearing (Incapacitance Tester). In kind it is in vivo, rat. The conditions noted are these: 24 h after CFA, 60 min after drug injection, n=7-8. As for the experimental part:
Rats (body weight 260-300 g) were given a s.c. injection of CFA (50% in saline, 100 μl, Sigma) into the plantar surface of the hindpaw under brief halothane anaesthesia. After 24 h, they were then tested for hindpaw weight bearing responses, as assessed using an Incapacitance Tester (Linton Instrumentation, UK), (Zhu et al., 2005). The instrument incorporates a dual channel scale that separately measures the weight of the animal distributed to each hindpaw. While normal rats distribute their body weight equally between the two hindpaws (50-50), the discrepancy of weight distribution between an injured and non-injured paw is a natural reflection of the discomfort level in the injured paw (nocifensive behavior). The rats were placed in the plastic chamber designed so that each hindpaw rested on a separate transducer pad. […] For each rat, three readings from each paw were taken and then averaged. Side-to-side weight bearing difference was calculated as the average of the absolute value of the difference between two hindpaws from three trials (right paw reading-left paw reading).
Hindpaw weight bearing responses were measured in male Sprague-Dawley rats for 2-3 days prior to being given a hindpaw injection of CFA. Twenty-four hours later baseline responses were measured and rats were then administered Compound A (5, 10 and 20 mg/kg, i.p.), Compound H (10, 30 and 60 mg/kg) and morphine (3, 6 and 10 mg/kg). Weight bearing responses were then measured at 30, 60 and 120 min after drug or vehicle injection (data shown at 60 min.). […] Data are expressed as mean +/−SEM. *P<0.05, **P<0.01, *** P<0.001 vs baseline; +++: P<0.001 vs vehicle. All groups n=7-8.

Assay [2] relates to CFA-induced thermal hyperalgesia. The assay is described as follows: CFA model, thermal hyperalgesia (Hargreaves plantar test). It is filed as in vivo, rat. On the procedure: Assessment of thermal hyperalgesia: Baseline and post-treatment withdrawal latencies to a noxious thermal stimulus were measured according to Hargreaves (Hargreaves et al., 1988) using a plantar test analgesia meter (IITC, Woodland Hills, Calif., model # 336). The stimulus intensity was set at 30% of maximum output and the cut-off time was set at 30 seconds. Rats were placed on a glass plate warmed to 28° C. and allowed to habituate to the testing chambers for a minimum of 15 minutes prior to each testing session. The thermal stimulus was applied to the plantar surface of the paw, and the mean latency of three readings on each paw was used as the latency value for each time point. Thermal thresholds were defined as the latency in seconds to the first pain behavior, which includes nocifensive paw withdrawal, flinching, biting and/or licking of the stimulated paw. The mean and standard error of the mean (SEM) were determined for the injured and normal paws for each treatment group.
For comparison, results with morphine (6 mg/kg sc) and indomethacin (30 mg/kg po) are shown. […] Data are expressed as mean±SEM, (n=10). **P<0.01, vs. baseline.

For the molecule `CN1CC[C@]23c4c5ccc(O)c4O[C@H]2[C@@H](O)C=C[C@H]3[C@H]1C5` [morphine, reference compound], the “CFA-induced change in hindpaw weight bearing compared with vehicle” value in assay [1] is reported as “marked dose-dependent attenuation in the CFA-induced change in weight bearing”. Besides, the “efficacy on CFA-induced thermal hyperalgesia” value in assay [2] (6 mg/kg sc) is “fully efficacious”.
As for `COc1ccc2c(c1)c(CC(=O)O)c(C)n2C(=O)c1ccc(Cl)cc1` [indomethacin, reference compound], the “efficacy on CFA-induced thermal hyperalgesia” value in assay [2] (30 mg/kg po) is listed as “fully efficacious”.

The values are drawn from patent US7718641B2, “Pyrrolo [3,4-H] isoquinoline compounds and methods for modulating gated ion channels” (Aros Pharma ApS, priority 2005, dated 2010).
